One assay deals with Beta-galactosidase (Escherichia coli, UniProt Q8VNN2). Description: PubChem AID 485352. The class given is functional.
The target of assay [1] is T1, Type-1 angiotensin II receptor (Homo sapiens, UniProt P30556).
T1 sequence (P30556 whole entry): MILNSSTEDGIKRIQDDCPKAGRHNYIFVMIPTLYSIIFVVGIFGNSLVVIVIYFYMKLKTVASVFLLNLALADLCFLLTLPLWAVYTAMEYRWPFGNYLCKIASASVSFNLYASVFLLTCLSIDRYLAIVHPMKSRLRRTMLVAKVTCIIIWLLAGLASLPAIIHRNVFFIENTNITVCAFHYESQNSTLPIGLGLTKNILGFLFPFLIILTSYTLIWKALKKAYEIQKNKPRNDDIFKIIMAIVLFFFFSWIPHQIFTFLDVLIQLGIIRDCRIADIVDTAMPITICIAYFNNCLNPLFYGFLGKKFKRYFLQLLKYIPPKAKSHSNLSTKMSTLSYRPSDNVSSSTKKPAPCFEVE
Description: antagonism of angiotensin II type 1 receptor – cell-based, uHTS hits, selectivity assay for APJ receptor antagonist project, dose response (AID 463214).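 Also: antagonist potency against angiotensin II stimulated AT1 response.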 The class given is functional.

In assay [2] the target is T2, Dual specificity protein phosphatase 6 (Rattus norvegicus, UniProt Q64346).
T2 sequence (Q64346 whole entry): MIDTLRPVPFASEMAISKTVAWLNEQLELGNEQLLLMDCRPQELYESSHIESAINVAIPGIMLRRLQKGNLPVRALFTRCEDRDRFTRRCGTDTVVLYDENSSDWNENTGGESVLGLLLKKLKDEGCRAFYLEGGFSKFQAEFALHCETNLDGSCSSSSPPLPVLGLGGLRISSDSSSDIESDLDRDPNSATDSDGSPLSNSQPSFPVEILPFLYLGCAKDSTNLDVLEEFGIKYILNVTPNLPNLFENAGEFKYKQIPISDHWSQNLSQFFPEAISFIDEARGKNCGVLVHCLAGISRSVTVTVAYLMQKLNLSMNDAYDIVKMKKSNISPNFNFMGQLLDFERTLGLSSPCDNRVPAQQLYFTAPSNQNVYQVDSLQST

The target of assay [3] is Glyceraldehyde-3-phosphate dehydrogenase (Homo sapiens, UniProt P04406).
The target of assay [4] is T2, Dual specificity protein phosphatase 6. The class given is functional.
Assay [5] addresses T3, Tyrosine-protein phosphatase non-receptor type 7 (Homo sapiens, UniProt P35236).
T3 sequence (P35236 whole entry): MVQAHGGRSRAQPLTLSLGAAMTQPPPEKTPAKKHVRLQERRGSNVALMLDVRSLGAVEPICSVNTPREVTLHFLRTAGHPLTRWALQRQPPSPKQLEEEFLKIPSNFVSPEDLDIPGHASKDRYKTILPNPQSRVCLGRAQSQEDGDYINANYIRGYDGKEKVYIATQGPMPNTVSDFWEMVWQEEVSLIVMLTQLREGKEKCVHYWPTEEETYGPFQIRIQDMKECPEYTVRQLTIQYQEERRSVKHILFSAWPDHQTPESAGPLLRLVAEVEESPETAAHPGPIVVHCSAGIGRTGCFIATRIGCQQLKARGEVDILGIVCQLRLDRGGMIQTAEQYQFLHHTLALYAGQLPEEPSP
The class given is functional.

In assay [6] the target is T4, Microphthalmia-associated transcription factor (Homo sapiens, UniProt O75030).
T4 sequence (O75030 whole entry): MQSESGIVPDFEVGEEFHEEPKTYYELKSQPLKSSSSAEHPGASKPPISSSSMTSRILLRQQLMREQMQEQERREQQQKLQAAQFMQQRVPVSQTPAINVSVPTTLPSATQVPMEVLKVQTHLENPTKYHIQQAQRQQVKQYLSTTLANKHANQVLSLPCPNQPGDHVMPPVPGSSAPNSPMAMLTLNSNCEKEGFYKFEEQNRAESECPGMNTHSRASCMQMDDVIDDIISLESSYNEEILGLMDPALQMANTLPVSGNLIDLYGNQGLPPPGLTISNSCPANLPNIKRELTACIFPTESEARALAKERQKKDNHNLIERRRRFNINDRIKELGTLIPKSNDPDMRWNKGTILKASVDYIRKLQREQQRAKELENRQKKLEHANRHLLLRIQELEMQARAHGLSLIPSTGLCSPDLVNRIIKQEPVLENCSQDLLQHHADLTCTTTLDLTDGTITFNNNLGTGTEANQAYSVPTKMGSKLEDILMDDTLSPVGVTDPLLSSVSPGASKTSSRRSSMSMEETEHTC
As to the kind of experiment: reducers of TRPM1 reporter luminescence, concentration series – cell-based, SK-MEL-5, cherry-picked, set 3, MITF inhibitor project, dose response (AID 493073).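 Also: SK-MEL-5 melanoma cells with luciferase driven by the MITF target TRPM1 promoter.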 The class given is functional.

The target in assay [7] is ATP-dependent molecular chaperone HSP82 (Candida albicans (strain WO-1) (Yeast), UniProt C4YTQ8). Description: steroid-induced GRE reporter decrease in yeast – S. cerevisiae, luminescence, Hsp90 inhibitor project, dose response (AID 2400).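 Also: beta-galactosidase luminescence from glucocorticoid response element reporter as proxy for Hsp90 function; inhibitor potency where signal loss means Hsp90 inhibition.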 The class given is functional, cell-based.
Assay [8] can be described thus: NIH3T3 cell viability loss – ATP luminescence, mouse fibroblasts, counter-screen, dose response (AID 2010).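 Also: cells exposed to compound for about 90 hours before reading.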 The class given is functional, cell-based. A general note: A counterscreen serves to expose hits that act by an unwanted route or on another target.
The nature of assay [9]: NIH-3T3 fibroblast cytotoxicity, dose response, cytotoxicity control, cell-based, fluorescence, Alamar Blue, secondary assay (AID 2327).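 Also: NIH-3T3 mouse fibroblasts cultured with fluconazole at 8 µg/mL.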 The class given is functional. In general terms: Alamar Blue is a resazurin reagent that responds to reducing activity.
The subject of a further assay is INS1. As to the kind of experiment: INS-1E survival protection against cytokine death – cell-based, luminescence, retest, dose response (AID 449756).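 Also: cell death triggered by IL-1 beta plus TNF-alpha plus IFN-gamma mixture; protective hits raise ATP signal compared with cytokine alone wells.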 The class given is functional. The settings on record: Rattus norvegicus.
The target in assay [10] is T5, COUP transcription factor 2 (Homo sapiens, UniProt P24468).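 Also: HEK293 cells transiently cotransfected with COUP-TFII expression vector and reporter; luciferase reporter luminescence driven by COUP-TFII from the pX2-168 reporter plasmid.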
T5 sequence (P24468 whole entry): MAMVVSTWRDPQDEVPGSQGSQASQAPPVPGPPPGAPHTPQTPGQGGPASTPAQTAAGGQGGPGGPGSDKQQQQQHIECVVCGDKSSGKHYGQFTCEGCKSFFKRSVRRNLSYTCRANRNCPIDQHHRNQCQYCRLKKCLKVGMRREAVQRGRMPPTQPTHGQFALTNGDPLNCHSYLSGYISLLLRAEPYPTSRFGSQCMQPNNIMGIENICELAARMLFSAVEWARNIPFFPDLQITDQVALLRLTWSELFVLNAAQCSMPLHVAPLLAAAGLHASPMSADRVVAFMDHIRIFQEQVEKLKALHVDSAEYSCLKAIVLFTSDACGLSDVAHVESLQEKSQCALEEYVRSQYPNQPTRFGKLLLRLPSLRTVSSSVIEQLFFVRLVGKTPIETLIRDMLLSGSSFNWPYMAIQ
Description: Luminescence-based cell-based high throughput dose response assay to identify inhibitors of COUP-TFII (NR2F2). The class given is functional.

The target of assay [11] is Serine/threonine-protein phosphatase (Candida dubliniensis (strain CD36 / CBS 7987 / NCPF 3949 / NRRLY-17841) (Yeast), UniProt B9W6M3). As to the kind of experiment: blockers of CaCl2-induced CDRE-lacZ signaling – S. cerevisiae, luminescence, secondary, dose response (AID 2388).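 Also: yeast reporter cells carrying a calcineurin-responsive lacZ construct stimulated with calcium chloride; luminescent beta-galactosidase reporter signal in whole cells rather than isolated phosphatase activity; potency for inhibition where a drop in reporter signal means calcineurin blockade.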 The class given is functional, cell-based.
Assay [12] is described as follows: HEK-293T viability loss after treatment – luminescence, T-cell screen hits, cytotoxicity control for TCR NF-kB inhibitor project, dose response (AID 489026).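 Also: cells exposed to compound about 14 hours before the viability readout.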 The class given is functional, cell-based.
The nature of assay [13]: fluconazole-exposed Candida albicans growth modulators – fluorescence, retest, confirmation (AID 2467). The class given is functional, cell-based.
Assay [14] can be described thus: Trypanosoma cruzi growth suppression in host cells – NIH3T3 host cells, beta-gal luminescence, confirmation (AID 2044).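 Also: intracellular parasites grown in NIH/3T3 mouse fibroblasts as host cells; luminescent beta-galactosidase reporter signal from transgenic T. cruzi replicating inside host cells; inhibitors lower the luminescence signal.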 The class given is functional, cell-based.
Assay [15] has as its target Voltage-gated inwardly rectifying potassium channel KCNH2 (Homo sapiens, UniProt Q12809). The settings on record: Potency.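 Also: confirmatory quantitative high-throughput screen measuring inhibition of hERG channel activity.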
A further assay deals with Cytochrome P450 3A4 (Homo sapiens, UniProt P08684). The settings on record: Potency.
For the next assay, the target named is Cytochrome P450 2D6 (Homo sapiens, UniProt P10635).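 Also: CYP2D6 member of a cytochrome P450 panel assay.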
The target in a further assay is Cytochrome P450 2C19 (Homo sapiens, UniProt P33261). As to the kind of experiment: Cytochrome panel assay with activity outcomes. Panel member name: p450-cyp2c19 Compounds with AC50 equal or less than 10 uM are considered active. The class given is functional. The note with it: read-out: AC50.

Values joined by “and” are separate entries in the source; they are usually repeats but may differ in a detail not shown here. Identical values can stand only once. Active and inactive are the calls of the source.

In general, EC50 refers to the midpoint of the concentration-response curve. In general, IC50 refers to the point on the concentration scale where inhibition reaches its midpoint. Broadly, the AC50 is the midpoint of the concentration-response curve, whichever way the signal moves.

Sequence of Serine/threonine-protein phosphatase (B9W6M3 whole entry): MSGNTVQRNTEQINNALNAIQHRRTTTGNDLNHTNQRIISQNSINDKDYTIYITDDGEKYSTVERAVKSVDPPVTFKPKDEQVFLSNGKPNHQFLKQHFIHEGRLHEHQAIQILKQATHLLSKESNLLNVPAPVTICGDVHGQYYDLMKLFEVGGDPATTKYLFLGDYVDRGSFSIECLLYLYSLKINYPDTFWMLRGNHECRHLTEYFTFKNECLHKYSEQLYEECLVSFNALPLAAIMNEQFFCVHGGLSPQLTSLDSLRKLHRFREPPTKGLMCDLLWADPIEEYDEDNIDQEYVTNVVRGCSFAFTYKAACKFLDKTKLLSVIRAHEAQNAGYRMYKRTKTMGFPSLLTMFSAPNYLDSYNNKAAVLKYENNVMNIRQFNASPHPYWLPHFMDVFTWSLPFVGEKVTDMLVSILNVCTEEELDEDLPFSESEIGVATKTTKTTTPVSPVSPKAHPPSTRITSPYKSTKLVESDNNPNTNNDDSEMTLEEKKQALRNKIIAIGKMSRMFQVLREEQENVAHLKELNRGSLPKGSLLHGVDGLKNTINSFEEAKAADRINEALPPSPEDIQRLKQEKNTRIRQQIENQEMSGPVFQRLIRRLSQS
Sequence of Voltage-gated inwardly rectifying potassium channel KCNH2 (Q12809 whole entry): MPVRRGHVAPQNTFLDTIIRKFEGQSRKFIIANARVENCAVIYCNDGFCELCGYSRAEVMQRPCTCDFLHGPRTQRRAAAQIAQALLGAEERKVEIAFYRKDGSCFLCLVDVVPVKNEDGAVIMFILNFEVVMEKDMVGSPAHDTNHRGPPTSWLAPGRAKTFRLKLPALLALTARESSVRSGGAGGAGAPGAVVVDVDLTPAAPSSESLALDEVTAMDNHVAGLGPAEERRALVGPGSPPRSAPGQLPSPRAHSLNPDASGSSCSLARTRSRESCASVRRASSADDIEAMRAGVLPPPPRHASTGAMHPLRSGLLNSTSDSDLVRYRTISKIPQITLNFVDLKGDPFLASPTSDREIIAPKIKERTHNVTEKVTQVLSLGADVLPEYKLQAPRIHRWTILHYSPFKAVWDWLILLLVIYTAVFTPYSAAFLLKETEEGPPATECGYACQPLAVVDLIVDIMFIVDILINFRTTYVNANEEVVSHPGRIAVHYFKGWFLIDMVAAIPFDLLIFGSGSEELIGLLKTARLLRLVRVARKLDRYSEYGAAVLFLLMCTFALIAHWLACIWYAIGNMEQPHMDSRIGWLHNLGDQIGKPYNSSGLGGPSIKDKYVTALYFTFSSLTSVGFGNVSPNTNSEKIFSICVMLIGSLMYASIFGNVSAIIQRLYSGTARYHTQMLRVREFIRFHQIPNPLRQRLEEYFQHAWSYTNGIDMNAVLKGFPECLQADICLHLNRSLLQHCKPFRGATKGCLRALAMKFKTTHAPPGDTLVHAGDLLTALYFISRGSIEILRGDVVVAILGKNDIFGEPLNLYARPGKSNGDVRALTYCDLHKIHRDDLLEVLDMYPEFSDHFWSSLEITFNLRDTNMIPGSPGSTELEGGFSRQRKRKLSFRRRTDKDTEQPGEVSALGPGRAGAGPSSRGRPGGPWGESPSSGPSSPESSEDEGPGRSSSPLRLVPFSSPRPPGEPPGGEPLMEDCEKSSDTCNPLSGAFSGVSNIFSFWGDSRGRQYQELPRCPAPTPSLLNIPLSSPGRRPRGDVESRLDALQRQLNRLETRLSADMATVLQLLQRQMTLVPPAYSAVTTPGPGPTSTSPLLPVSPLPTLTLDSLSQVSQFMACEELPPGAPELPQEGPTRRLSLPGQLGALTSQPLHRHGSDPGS
Sequence of ATP-dependent molecular chaperone HSP82 (C4YTQ8 whole entry): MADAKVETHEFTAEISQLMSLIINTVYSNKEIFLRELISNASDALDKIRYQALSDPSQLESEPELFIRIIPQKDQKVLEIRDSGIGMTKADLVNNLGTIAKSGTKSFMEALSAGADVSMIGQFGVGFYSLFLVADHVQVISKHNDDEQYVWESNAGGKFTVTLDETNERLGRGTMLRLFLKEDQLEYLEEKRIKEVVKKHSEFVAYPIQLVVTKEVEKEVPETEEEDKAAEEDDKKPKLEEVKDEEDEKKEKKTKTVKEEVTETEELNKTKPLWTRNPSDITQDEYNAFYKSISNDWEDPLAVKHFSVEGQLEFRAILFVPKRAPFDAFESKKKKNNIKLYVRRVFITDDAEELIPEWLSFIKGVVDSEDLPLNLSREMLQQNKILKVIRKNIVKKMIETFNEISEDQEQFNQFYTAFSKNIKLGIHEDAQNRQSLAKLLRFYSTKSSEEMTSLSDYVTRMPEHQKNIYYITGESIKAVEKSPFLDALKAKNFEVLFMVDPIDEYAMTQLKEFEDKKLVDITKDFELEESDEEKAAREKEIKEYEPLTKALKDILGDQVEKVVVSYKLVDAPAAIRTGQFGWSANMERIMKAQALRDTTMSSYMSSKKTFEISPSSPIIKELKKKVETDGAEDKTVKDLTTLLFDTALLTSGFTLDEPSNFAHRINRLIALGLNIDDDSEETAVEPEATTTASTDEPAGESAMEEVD
Sequence of Cytochrome P450 3A4 (P08684 whole entry): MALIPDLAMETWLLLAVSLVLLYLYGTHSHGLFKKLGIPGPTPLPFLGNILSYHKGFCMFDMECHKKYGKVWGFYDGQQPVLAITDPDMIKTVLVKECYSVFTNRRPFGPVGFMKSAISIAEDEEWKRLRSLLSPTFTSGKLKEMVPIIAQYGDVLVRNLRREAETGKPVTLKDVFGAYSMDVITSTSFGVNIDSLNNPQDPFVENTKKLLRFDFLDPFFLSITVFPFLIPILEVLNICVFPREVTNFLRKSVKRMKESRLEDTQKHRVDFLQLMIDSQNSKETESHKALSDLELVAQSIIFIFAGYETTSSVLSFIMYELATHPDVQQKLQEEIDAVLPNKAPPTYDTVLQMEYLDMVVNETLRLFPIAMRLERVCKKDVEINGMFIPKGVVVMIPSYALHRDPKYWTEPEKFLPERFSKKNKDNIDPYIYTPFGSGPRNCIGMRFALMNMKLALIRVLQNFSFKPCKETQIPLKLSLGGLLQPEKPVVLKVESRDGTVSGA
Sequence of Cytochrome P450 2C19 (P33261 whole entry): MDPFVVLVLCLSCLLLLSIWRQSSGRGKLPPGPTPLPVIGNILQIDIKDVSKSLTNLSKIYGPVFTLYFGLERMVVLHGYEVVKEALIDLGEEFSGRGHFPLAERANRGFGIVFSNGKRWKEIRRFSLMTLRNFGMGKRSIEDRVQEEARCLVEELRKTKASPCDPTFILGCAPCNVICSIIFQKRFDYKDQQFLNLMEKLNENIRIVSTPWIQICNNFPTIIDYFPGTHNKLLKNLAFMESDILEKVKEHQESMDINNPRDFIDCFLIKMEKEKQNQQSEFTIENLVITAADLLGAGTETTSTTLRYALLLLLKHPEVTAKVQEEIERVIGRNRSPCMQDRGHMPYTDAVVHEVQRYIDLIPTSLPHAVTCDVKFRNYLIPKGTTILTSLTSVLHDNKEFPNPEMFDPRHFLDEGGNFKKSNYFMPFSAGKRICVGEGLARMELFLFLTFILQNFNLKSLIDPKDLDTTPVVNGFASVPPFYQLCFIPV
Sequence of Beta-galactosidase (Q8VNN2 whole entry): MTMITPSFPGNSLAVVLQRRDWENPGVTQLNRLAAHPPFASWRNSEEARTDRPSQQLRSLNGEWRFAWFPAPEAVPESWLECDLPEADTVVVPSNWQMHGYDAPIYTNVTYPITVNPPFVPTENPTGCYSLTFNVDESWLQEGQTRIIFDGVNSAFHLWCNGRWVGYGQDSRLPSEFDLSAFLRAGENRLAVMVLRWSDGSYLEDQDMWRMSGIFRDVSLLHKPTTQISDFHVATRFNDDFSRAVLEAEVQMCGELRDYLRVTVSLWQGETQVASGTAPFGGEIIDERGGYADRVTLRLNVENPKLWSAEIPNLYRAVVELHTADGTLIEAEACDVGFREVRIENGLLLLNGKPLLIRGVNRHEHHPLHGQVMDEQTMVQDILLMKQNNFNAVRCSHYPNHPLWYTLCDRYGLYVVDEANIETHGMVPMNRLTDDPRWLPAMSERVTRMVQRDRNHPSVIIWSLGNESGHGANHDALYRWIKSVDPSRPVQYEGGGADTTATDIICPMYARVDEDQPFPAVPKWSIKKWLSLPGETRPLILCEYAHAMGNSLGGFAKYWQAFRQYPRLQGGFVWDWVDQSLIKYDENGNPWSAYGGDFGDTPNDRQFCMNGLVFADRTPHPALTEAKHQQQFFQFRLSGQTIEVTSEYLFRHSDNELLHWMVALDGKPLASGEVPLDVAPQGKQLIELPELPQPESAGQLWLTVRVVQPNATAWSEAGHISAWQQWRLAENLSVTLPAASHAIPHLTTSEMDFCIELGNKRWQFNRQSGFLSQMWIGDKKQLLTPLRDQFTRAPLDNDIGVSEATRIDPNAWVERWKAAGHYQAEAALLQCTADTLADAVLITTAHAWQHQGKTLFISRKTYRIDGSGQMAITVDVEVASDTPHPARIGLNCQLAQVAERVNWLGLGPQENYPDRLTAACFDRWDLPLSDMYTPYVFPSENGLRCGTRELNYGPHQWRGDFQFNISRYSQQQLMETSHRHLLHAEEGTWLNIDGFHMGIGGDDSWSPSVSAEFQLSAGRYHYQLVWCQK
Sequence of Cytochrome P450 2D6 (P10635 whole entry): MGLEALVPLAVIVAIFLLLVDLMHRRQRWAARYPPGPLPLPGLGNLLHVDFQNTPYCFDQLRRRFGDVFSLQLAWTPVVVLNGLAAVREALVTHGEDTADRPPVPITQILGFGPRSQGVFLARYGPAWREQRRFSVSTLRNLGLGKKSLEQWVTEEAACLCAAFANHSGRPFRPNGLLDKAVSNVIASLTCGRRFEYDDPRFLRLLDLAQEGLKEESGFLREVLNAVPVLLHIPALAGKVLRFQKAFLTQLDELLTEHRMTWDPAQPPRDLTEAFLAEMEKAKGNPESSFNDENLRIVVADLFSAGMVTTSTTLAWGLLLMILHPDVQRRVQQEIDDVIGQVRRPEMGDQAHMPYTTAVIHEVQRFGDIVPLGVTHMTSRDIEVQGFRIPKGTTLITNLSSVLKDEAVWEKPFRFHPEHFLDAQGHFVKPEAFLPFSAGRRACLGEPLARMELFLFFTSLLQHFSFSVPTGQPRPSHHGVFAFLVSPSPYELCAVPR

On to `CCC1CCCCN1CC(=O)c1ccc(OC(F)F)cc1` (stereo not given), for which the EC50 at Beta-galactosidase is > 40 µM (inactive). In addition, in [1], the IC50 was > 40 µM (not active).

Consider `O=C(Cc1cccs1)Nc1ccon1`, for which the IC50 is > 100 µM (inactive) in [2], 27.4 µM (active) in assay [3], > 100 µM (inactive) in [4] and > 100 µM (not active) in [5].

On to `COc1ccc(-[n+]2cc(-c3ccc(C)cc3)n3c2SCC3)cc1`, for which the concentration at half-maximal activity (AC50) in assay [6] is 2.91 µM (active); in the assay on INS1, 1.12 µM (active). The EC50 is > 150 µM (inactive) in assay [7]; > 60 µM (not active) in assay [8]; > 150 µM (inactive) in assay [9]; > 180 µM (inactive) in assay [11]; 1.17 µM (active) in assay [13]; 0.318 µM (active) in assay [14]. For the same compound, the concentration for half-maximal inhibition (IC50) is 7.65 µM (active) in [10] and > 80 µM (inactive) in assay [12].

Take `CCC(=O)/C=C/C1C(C)=CCCC1(C)C` (stereo not given): the results for the half-maximal activity concentration (AC50) (in assay [15]; at Cytochrome P450 3A4) were 39.8 µM (inconclusive) and 31.6 µM (inconclusive), respectively.

Take `C[C@]12CC[C@H](O)C[C@@H]1CC[C@@H]1[C@@H]2CC[C@]2(C)C(=O)CC[C@@H]12` [EPIANDROSTERONE]: the 50% effective concentration (EC50) is 24.2 µM (active) in assay [7]; > 180 µM (inactive) in assay [11]; 877 nM (active) and 1.15 µM (active) in assay [13]. For the same compound, on Cytochrome P450 3A4, the AC50 is 20 µM (inconclusive).

Take `O=c1oc(Cl)c(Cl)c2ccccc12`: the half-maximal activity concentration (AC50) at Cytochrome P450 2D6 was 31.6 µM (inconclusive); in assay [15], 2.82 µM (inconclusive); on Cytochrome P450 2C19, 25.1 µM (inconclusive).

These data come from ChEMBL document CHEMBL1201862, “PubChem BioAssay data set” (2004).
